Laboratory results: PubChem BioAssay (NCI)
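Results reflect a 48-hour exposure of cells in 96-well plates to compound at five concentrations. TGI: total growth inhibition.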

Columns and labels:
Assay in all cases: inhibition of tumour cell growth, NCI panel, 48 h
MDA-MB-231 breast = test system: MDA-MB-231 breast
NCI/ADR-RES ovarian = test system: NCI/ADR-RES ovarian
UACC-62 melanoma = test system: UACC-62 melanoma
RPMI-8226 leukemia = test system: RPMI-8226 leukemia
SNB-75 CNS = test system: SNB-75 CNS
K-562 leukemia = test system: K-562 leukemia
OVCAR-8 ovarian = test system: OVCAR-8 ovarian
A498 renal = test system: A498 renal
MDA-MB-435 = test system: MDA-MB-435
UO-31 renal = test system: UO-31 renal
IGROV1 ovarian = test system: IGROV1 ovarian

`Nc1cccc(OCc2nc(N)nc(N)c2-c2ccc(Cl)cc2)c1` gave a TGI (MDA-MB-231 breast) of over 100 µM, a TGI (NCI/ADR-RES ovarian) of over 100 µM and a TGI (UACC-62 melanoma) of over 100 µM. For the same molecule, the TGI (RPMI-8226 leukemia) was over 100 µM, the TGI (SNB-75 CNS) was over 100 µM and the TGI (K-562 leukemia) was over 100 µM. For the same molecule, the TGI (OVCAR-8 ovarian) was over 100 µM, the TGI (A498 renal) was over 100 µM and the TGI (MDA-MB-435) was over 100 µM. For the same molecule, the TGI (UO-31 renal) was over 100 µM and the TGI (IGROV1 ovarian) was over 100 µM.
`CCC(=O)NCCc1c[nH]c2ccc(OC)cc12` showed a TGI (MDA-MB-231 breast) of over 100 µM, a TGI (NCI/ADR-RES ovarian) of over 100 µM and a TGI (UACC-62 melanoma) of over 100 µM. It also gave a TGI (RPMI-8226 leukemia) of over 100 µM, a TGI (SNB-75 CNS) of over 100 µM and a TGI (K-562 leukemia) of over 100 µM. The TGI (OVCAR-8 ovarian) was over 100 µM, the TGI (A498 renal) was over 100 µM and the TGI (MDA-MB-435) was over 100 µM. For the same molecule, the TGI (UO-31 renal) was over 100 µM and the TGI (IGROV1 ovarian) was over 100 µM.
`C[C@@H]1CCC2[C@@H](C)C(=O)O[C@@H]3C4C[C@@H]1[C@@]23OO[C@@]4(C)O` (stereo not given in full) was tested, and the TGI (MDA-MB-231 breast) was over 100 µM, the TGI (NCI/ADR-RES ovarian) was over 100 µM and the TGI (UACC-62 melanoma) was over 100 µM. It also gave a TGI (RPMI-8226 leukemia) of over 100 µM, a TGI (SNB-75 CNS) of over 100 µM and a TGI (K-562 leukemia) of over 100 µM. It also gave a TGI (OVCAR-8 ovarian) of over 100 µM, a TGI (A498 renal) of over 100 µM and a TGI (MDA-MB-435) of over 100 µM. It also gave a TGI (UO-31 renal) of 94 µM and a TGI (IGROV1 ovarian) of over 100 µM.
In the case of `O=C(O)c1ccccc1/C=N\NC1=NCCN1`, the TGI (MDA-MB-231 breast) is reported as over 100 µM, the TGI (NCI/ADR-RES ovarian) is reported as over 100 µM and the TGI (UACC-62 melanoma) is reported as over 100 µM. For the same molecule, the TGI (RPMI-8226 leukemia) was over 100 µM, the TGI (SNB-75 CNS) was over 100 µM and the TGI (K-562 leukemia) was over 100 µM. It also gave a TGI (OVCAR-8 ovarian) of over 100 µM, a TGI (A498 renal) of over 100 µM and a TGI (MDA-MB-435) of over 100 µM. The TGI (UO-31 renal) was over 100 µM and the TGI (IGROV1 ovarian) was over 100 µM.
With `CC(C)[Si](OC1=CCCCCC12C(=O)N(C)c1ccccc12)(C(C)C)C(C)C` (stereo not given) the TGI (MDA-MB-231 breast) was 54.8 µM, the TGI (NCI/ADR-RES ovarian) was 42.8 µM and the TGI (UACC-62 melanoma) was 59.2 µM. The TGI (RPMI-8226 leukemia) was 36.5 µM, the TGI (SNB-75 CNS) was 40.4 µM and the TGI (K-562 leukemia) was over 100 µM. For the same molecule, the TGI (OVCAR-8 ovarian) was 44.6 µM, the TGI (A498 renal) was 42.8 µM and the TGI (MDA-MB-435) was 67.3 µM. For the same molecule, the TGI (UO-31 renal) was 36.7 µM and the TGI (IGROV1 ovarian) was 62.9 µM.
`CC1OC(=O)c2ccccc2NC1=O` (stereo not given) gave a TGI (MDA-MB-231 breast) of over 100 µM, a TGI (NCI/ADR-RES ovarian) of over 100 µM and a TGI (UACC-62 melanoma) of over 100 µM. For the same molecule, the TGI (RPMI-8226 leukemia) was over 100 µM, the TGI (SNB-75 CNS) was over 100 µM and the TGI (K-562 leukemia) was over 100 µM. The TGI (OVCAR-8 ovarian) was over 100 µM, the TGI (A498 renal) was over 100 µM and the TGI (MDA-MB-435) was over 100 µM. The TGI (UO-31 renal) was over 100 µM and the TGI (IGROV1 ovarian) was over 100 µM.
`C=CCn1c(=O)c(C)cn(/C(=C/C(=O)OCC)C(=O)OCC)c1=O` showed a TGI (MDA-MB-231 breast) of 29.3 µM, a TGI (NCI/ADR-RES ovarian) of 55.5 µM and a TGI (UACC-62 melanoma) of 34.4 µM. For the same molecule, the TGI (RPMI-8226 leukemia) was 39.5 µM, the TGI (SNB-75 CNS) was 25.6 µM and the TGI (K-562 leukemia) was 17.1 µM. For the same molecule, the TGI (OVCAR-8 ovarian) was 45.9 µM, the TGI (A498 renal) was 45.1 µM and the TGI (MDA-MB-435) was 28.2 µM. It also gave a TGI (UO-31 renal) of 29.1 µM and a TGI (IGROV1 ovarian) of 31.4 µM.
In the case of `CC(C)(C)OC(=O)NC(Cc1ccc([N+](=O)[O-])cc1)C(=O)NC(CCCCNC(=O)OCc1ccccc1)C(=O)ON1C(=O)CCC1=O` (stereo not given), the TGI (MDA-MB-231 breast) is reported as over 100 µM, the TGI (NCI/ADR-RES ovarian) is reported as over 100 µM and the TGI (UACC-62 melanoma) is reported as over 100 µM. It also gave a TGI (RPMI-8226 leukemia) of over 100 µM, a TGI (SNB-75 CNS) of over 100 µM and a TGI (K-562 leukemia) of 73.1 µM. It also gave a TGI (OVCAR-8 ovarian) of over 100 µM, a TGI (A498 renal) of over 100 µM and a TGI (MDA-MB-435) of over 100 µM. The TGI (UO-31 renal) was over 100 µM and the TGI (IGROV1 ovarian) was over 100 µM.
With `CC/C(Cl)=N\OC(=O)Nc1ccc(C#N)cc1` the TGI (MDA-MB-231 breast) was 29.1 µM, the TGI (NCI/ADR-RES ovarian) was 18.3 µM and the TGI (UACC-62 melanoma) was 28.4 µM. The TGI (RPMI-8226 leukemia) was 8.66 µM, the TGI (SNB-75 CNS) was 28.2 µM and the TGI (K-562 leukemia) was 4.28 µM. The TGI (OVCAR-8 ovarian) was 30.7 µM, the TGI (A498 renal) was 30.3 µM and the TGI (MDA-MB-435) was 29.4 µM. It also gave a TGI (UO-31 renal) of 31 µM and a TGI (IGROV1 ovarian) of 30.6 µM.
`O=C1OC(CN2CCN(c3ccccc3)CC2)CN1C(=S)Nc1ccccc1` (stereo not given) showed a TGI (MDA-MB-231 breast) of over 100 µM, a TGI (NCI/ADR-RES ovarian) of over 100 µM and a TGI (UACC-62 melanoma) of over 100 µM. For the same molecule, the TGI (RPMI-8226 leukemia) was over 100 µM, the TGI (SNB-75 CNS) was over 100 µM and the TGI (K-562 leukemia) was over 100 µM. The TGI (OVCAR-8 ovarian) was over 100 µM, the TGI (A498 renal) was over 100 µM and the TGI (MDA-MB-435) was over 100 µM. For the same molecule, the TGI (UO-31 renal) was over 100 µM and the TGI (IGROV1 ovarian) was over 100 µM.
`NC(=O)N(O)c1cccc(Br)c1` gave a TGI (MDA-MB-231 breast) of over 100 µM, a TGI (NCI/ADR-RES ovarian) of over 100 µM and a TGI (UACC-62 melanoma) of over 100 µM. For the same molecule, the TGI (RPMI-8226 leukemia) was over 100 µM, the TGI (SNB-75 CNS) was over 100 µM and the TGI (K-562 leukemia) was over 100 µM. For the same molecule, the TGI (OVCAR-8 ovarian) was over 100 µM, the TGI (A498 renal) was over 100 µM and the TGI (MDA-MB-435) was over 100 µM. It also gave a TGI (UO-31 renal) of over 100 µM and a TGI (IGROV1 ovarian) of over 100 µM.
`Cc1ccc(S(=O)(=O)N/N=C2\C=C[C@]3(CC2)C(=O)N(C)c2ccccc23)cc1` was tested, and the TGI (MDA-MB-231 breast) was over 100 µM, the TGI (NCI/ADR-RES ovarian) was over 100 µM and the TGI (UACC-62 melanoma) was over 100 µM. It also gave a TGI (RPMI-8226 leukemia) of over 100 µM, a TGI (SNB-75 CNS) of over 100 µM and a TGI (K-562 leukemia) of over 100 µM. For the same molecule, the TGI (OVCAR-8 ovarian) was over 100 µM, the TGI (A498 renal) was over 100 µM and the TGI (MDA-MB-435) was over 100 µM. It also gave a TGI (UO-31 renal) of over 100 µM and a TGI (IGROV1 ovarian) of over 100 µM.
Work on `Cc1cn(C2CC(N=[N+]=[N-])C(CO[Si](C)(C)C(C)(C)C)O2)c(=O)[nH]c1=O` (stereo not given) yielded a TGI (MDA-MB-231 breast) of 29.5 µM, a TGI (NCI/ADR-RES ovarian) of 36 µM and a TGI (UACC-62 melanoma) of 29.8 µM. It also gave a TGI (RPMI-8226 leukemia) of 47.1 µM, a TGI (SNB-75 CNS) of 42.9 µM and a TGI (K-562 leukemia) of 47.6 µM. The TGI (OVCAR-8 ovarian) was 37.1 µM, the TGI (A498 renal) was 30.7 µM and the TGI (MDA-MB-435) was 38.2 µM. It also gave a TGI (UO-31 renal) of 30.7 µM and a TGI (IGROV1 ovarian) of 37.3 µM.
`COC(=O)C1=C(O)C(C(=O)OC)[C@]2(O)[C@H](C(=O)OC)[C@H]1C[C@@H](c1ccc(OC)cc1)[C@H]2C(=O)OC` (stereo not given in full) showed a TGI (MDA-MB-231 breast) of 75.3 µM, a TGI (NCI/ADR-RES ovarian) of over 100 µM and a TGI (UACC-62 melanoma) of 25.8 µM. The TGI (RPMI-8226 leukemia) was 57.4 µM, the TGI (SNB-75 CNS) was 91.8 µM and the TGI (K-562 leukemia) was over 100 µM. The TGI (OVCAR-8 ovarian) was over 100 µM, the TGI (A498 renal) was 34.9 µM and the TGI (MDA-MB-435) was 29 µM. It also gave a TGI (UO-31 renal) of 34.9 µM and a TGI (IGROV1 ovarian) of over 100 µM.
`NC(CCCCNc1ccn(C2OC(CO)C(O)C2O)c(=O)n1)C(=O)O` (stereo not given) gave a TGI (MDA-MB-231 breast) of over 100 µM, a TGI (NCI/ADR-RES ovarian) of over 100 µM and a TGI (UACC-62 melanoma) of over 100 µM. It also gave a TGI (RPMI-8226 leukemia) of over 100 µM, a TGI (SNB-75 CNS) of over 100 µM and a TGI (K-562 leukemia) of over 100 µM. It also gave a TGI (OVCAR-8 ovarian) of over 100 µM, a TGI (A498 renal) of over 100 µM and a TGI (MDA-MB-435) of over 100 µM. It also gave a TGI (UO-31 renal) of over 100 µM and a TGI (IGROV1 ovarian) of over 100 µM.
